Measurements reported in patent US12077483B2, “Modified amine lipids” (Intellia Therapeutics, Inc., priority 2018, dated 2024).

Experiments:
[1] = pKa of amine lipid by TNS fluorescence; assay type: physicochemical; details: probe TNS (6-(p-toluidino)-2-naphthalenesulfonic acid sodium salt), unformulated amine lipid in ethanol, sodium phosphate buffers -9.0
Procedure: The pKa of each amine lipid was determined according to the method in Jayaraman, et al. (Angewandte Chemie, 2012) with the following adaptations. The pKa was determined for unformulated amine lipid in ethanol. Lipid stock solutions (2.94 mM) were diluted into Sodium Phosphate Buffers (0.1 M, Boston Bioproducts) of different pH (pH-range: 4.5-9.0) yielding a final lipid concentration of approx. 100 μM. The test samples were supplemented with TNS {6-(p-Toluidino)-2-naphthalenesulfonic acid sodium salt}, incubated and the fluorescence intensity was measured using excitation and emission wavelengths of 321 nm and 448 nm, respectively. The recorded data were normalized and the respective pKa values were derived from sigmoidal fitting.

mouse TTR = experiment: Serum TTR ELISA in mice after LNP delivery; assay type: in vivo; details: mouse serum, relative to TSS control of same experiment
Procedure: For studies measuring in vivo editing in liver, CD-1 female mice were dosed at 0.1 mpk unless otherwise noted. Animals were euthanized at 6 or 7 days by exsanguinationvia cardiac puncture under isoflourane anesthesia. Liver tissue was collected from each animal for DNA extraction and analysis. Blood was collected into serum separator tubes or into tubes containing buffered sodium citrate for plasma as described herein. Cohorts of mice were measured for editing by Next-Generation Sequencing (NGS).
Blood was collected and the serum was isolated as indicated. The total mouse TTR serum levels were determined using a Mouse Prealbumin (Transthyretin) ELISA Kit (Aviva Systems Biology, Cat. OKIA00111). Briefly, sera were serial diluted with kit sample diluent, e.g. to a final dilution of 10,000-fold and/or 2,500-fold. The diluted sample was then added to the ELISA plates and the assay was then carried out according to directions. Serum TTR data from treatment groups are expressed as a percentage of vehicle control levels.

| pKa [1] | SMILES | Serum TTR % TSS (mouse TTR; dose 0.03 mpk) [% TSS] | Serum TTR % TSS (mouse TTR; dose 0.1 mpk) [% TSS] |
| --- | --- | --- | --- |
| 7.02 | CCCCC/C=C\C/C=C\CCCCCCCC(=O)OCC(COC(=O)CCC(CCCC)OC(=O)NCCN1CCCC1)OC(=O)CCCCCCC/C=C\C/C=C\CCCCC (centres unmarked) [Compound 111, 3-((4-(((2-(pyrrolidin-1-yl)ethyl)carbamoyl)oxy)octanoyl)oxy)propane-1,2-diyl (9Z,9′Z,12Z,12′Z)-bis(octadeca-9,12-dienoate)] | – | – |
| 6.32 | CCCCCCCCCCOC(=O)CCCCCCCC(=O)OCC(COC(=O)CCCCCCCC(=O)OCCCCCCCCCC)OC(=O)CCCC(CCCCCCCC)OC(=O)NCCN(C)CC (centres unmarked) [Compound 58] | – | – |
| 6.91 | CCCCC/C=C\C/C=C\CCCCCCCC(=O)OCC(COC(=O)CCCCCCC/C=C\CCCCCCCC)OC(=O)CCC(CCCC)OC(=O)NCCN1CCCC1 (centres unmarked) [Compound 109, 3-(oleoyloxy)-2-((4-(((2-(pyrrolidin-1-yl)ethyl)carbamoyl)oxy)octanoyl)oxy)propyl (9Z,12Z)-octadeca-9,12-dienoate] | – | – |
| 5.99 | CCCCC/C=C\C/C=C\CCCCCCCC(=O)OCC(COC(=O)CCCCCCC/C=C\C/C=C\CCCCC)OC(=O)CCC(CCCCCCCCCCCC)OC(=O)OC1CCN(C)CC1 (centres unmarked) [f47] | – | – |
| 7.01 | CCCCCCCC/C=C\CCCCCCCC(=O)OCC(COC(=O)CCCCCCC/C=C\CCCCCCCC)OC(=O)CCC(CCCC)OC(=O)NCCN1CCCC1 (centres unmarked) [Compound 110, 2-((4-(((2-(pyrrolidin-1-yl)ethyl)carbamoyl)oxy)octanoyl)oxy)propane-1,3-diyl dioleate] | – | – |
| 5.16 | CCCCC/C=C\C/C=C\CCCCCCCC(=O)OCC(COC(=O)CCCCCCC/C=C\C/C=C\CCCCC)OC(=O)CCC(CCCCCC)OC(=O)OCCCN1CCCCC1 (centres unmarked) [Compound 102, 2-((4-(((3-(piperidin-1-yl)propoxy)carbonyl)oxy)decanoyl)oxy)propane-1,3-diyl (9Z,9′Z,12Z,12′Z)-bis(octadeca-9,12-dienoate)] | – | – |
| 5.28 | CCCCC/C=C\C/C=C\CCCCCCCC(=O)OCC(COC(=O)CCCCCCC/C=C\C/C=C\CCCCC)OC(=O)CCC(CCCCCCCCCCCC)OC(=O)OCCCN(CC)CC (centres unmarked) [Compound 2, 2-((4-(((3-(diethylamino)propoxy)carbonyl)oxy)hexadecanoyl)oxy)propane-1,3-diyl (9Z,9′Z,12Z,12′Z)-bis(octadeca-9,12-dienoate)] | – | – |
| 6.71 | CCCCC/C=C\C/C=C\CCCCCCCC(=O)OCC(COC(=O)CCCCCCC/C=C\C/C=C\CCCCC)OC(=O)CCC(CCCCC(C)C)OC(=O)NCCN1CCCC1 (centres unmarked) [Compound 82, 2-((9-methyl-4-(((2-(pyrrolidin-1-yl)ethyl)carbamoyl)oxy)decanoyl)oxy)propane-1,3-diyl (9Z,9′Z,12Z,12′Z)-bis(octadeca-9,12-dienoate)] | – | – |
| 6.61 | CCCCC/C=C\C/C=C\CCCCCCCC(=O)OCC(COC(=O)CCCCCCC/C=C\C/C=C\CCCCC)OC(=O)CCC(CCCCCC(C)C)OC(=O)NCCN1CCCC1 (centres unmarked) [Compound 83, 2-((10-methyl-4-(((2-(pyrrolidin-1-yl)ethyl)carbamoyl)oxy)undecanoyl)oxy)propane-1,3-diyl (9Z,9′Z,12Z,12′Z)-bis(octadeca-9,12-dienoate)] | – | – |

More lines, now with the values behind:

| SMILES | pKa [1] | Serum TTR % TSS (mouse TTR; dose 0.03 mpk) [% TSS] | Serum TTR % TSS (mouse TTR; dose 0.1 mpk) [% TSS] |
| --- | --- | --- | --- |
| CCCCC/C=C\C/C=C\CCCCCCCC(=O)OCC(COC(=O)CCCCCCC/C=C\C/C=C\CCCCC)COC(=O)C(C)(C)C(CCCCCCCC)OC(=O)NCCN(C)CC (centres unmarked) [Compound 99, 2-(4,4,11-trimethyl-5-octyl-3,7-dioxo-2,6-dioxa-8,11-diazatridecyl)propane-1,3-diyl (9Z,9′Z,12Z,12′Z)-bis(octadeca-9,12-dienoate)] | 5.96 | 92.42 | 42.87 |
| CCCCC/C=C\C/C=C\CCCCCCCC(=O)OCC(COC(=O)CCCCCCC/C=C\C/C=C\CCCCC)COC(=O)CCC(CCCCCCCC)OC(=O)NCCN(C)CC (centres unmarked) [Compound 54, 2-(12-methyl-6-octyl-3,8-dioxo-2,7-dioxa-9,12-diazatetradecyl)propane-1,3-diyl (9Z,9′Z,12Z,12′Z)-bis(octadeca-9,12-dienoate)] | 6.25 | – | 18.32 |
| CCCCCCCCCCOC(=O)CCCCCCCC(=O)OCC(COC(=O)CCCCCCCC(=O)OCCCCCCCCCC)OC(=O)CC(CCCCCCCC)OC(=O)NCCN(C)CC (centres unmarked) [Compound 56, 9,9′-didecyl O′1,O1-(2-((3-(((2-(ethyl(methyl)amino)ethyl)carbamoyl)oxy)undecanoyl)oxy)propane-1,3-diyl) di(nonanedioate)] | 6.28 | – | 69.70 |
| CCCCC/C=C\C/C=C\CCCCCCCC(=O)OCC(COC(=O)CCCCCCC/C=C\C/C=C\CCCCC)COC(=O)CC(CCCC)OC(=O)NCCN1CCCC1 (centres unmarked) [Compound 113, 2-(((3-(((2-(pyrrolidin-1-yl)ethyl)carbamoyl)oxy)heptanoyl)oxy)methyl)propane-1,3-diyl (9Z,9′Z,12Z,12′Z)-bis(octadeca-9,12-dienoate)] | 7.02 | – | – |
| CCCCC/C=C\C/C=C\CCCCCCCC(=O)OCC(COC(=O)CCCCCCC/C=C\C/C=C\CCCCC)OC(=O)CCC(CCCCCCCC)OC(=O)N(C)CCN(C)CC (centres unmarked) [Compound 37, 2-((4-(((2-(ethyl(methyl)amino)ethyl)(methyl)carbamoyl)oxy)dodecanoyl)oxy) propane-1,3-diyl (9Z,9′Z,12Z,12′Z)-bis(octadeca-9,12-dienoate)] | 5.36 | – | – |
| CCCCC/C=C\C/C=C\CCCCCCCC(=O)OCC(COC(=O)CCCCCCC/C=C\C/C=C\CCCCC)OC(=O)CCC(CCCCCCCCCCCC)OC(=O)OCCN(C)C (centres unmarked) [Compound 4, 2-((4-(((2-(dimethylamino)ethoxy)carbonyl)oxy)hexadecanoyl)oxy)propane-1,3-diyl (9Z,9′Z,12Z,12′Z)-bis(octadeca-9,12-dienoate)] | < 5 | 73.09 | – |
| CCCCC/C=C\C/C=C\CCCCCCCC(=O)OCC(COC(=O)CCCCCCC/C=C\C/C=C\CCCCC)COC(=O)CCC(CCCC)OC(=O)NCCN1CCCC1 (centres unmarked) [Compound 112, 2-(((4-(((2-(pyrrolidin-1l-yl)ethyl)carbamoyl)oxy)octanoyl)oxy)methyl)propane-1,3-diyl (9Z,9′Z,12Z,12′Z)-bis(octadeca-9,12-dienoate)] | 7.02 | – | – |
| CCCCC/C=C\C/C=C\CCCCCCCC(=O)OCC(COC(=O)CCCCCCC/C=C\C/C=C\CCCCC)OC(=O)CCC(CCCCCCCCCCCC)OC(=O)NCCCN(CC)CC (centres unmarked) [Compound 13, 2-((4-(((3-(diethylamino)propyl)carbamoyl)oxy)hexadecanoyl)oxy)propane-1,3-diyl (9Z,9′Z,12Z,12′Z)-bis(octadeca-9,12-dienoate)] | 7.2 | – | – |
| CCCCC/C=C\C/C=C\CCCCCCCC(=O)OCC(COC(=O)CCCCCCC/C=C\C/C=C\CCCCC)OC(=O)CCC(CCCCCC)OC(=O)OCCCN1CCC1 (centres unmarked) [Compound 101, 2-((4-(((3-(azetidin-1-yl)propoxy)carbonyl)oxy)decanoyl)oxy)propane-1,3-diyl (9Z,9′Z,12Z,12′Z)-bis(octadeca-9,12-dienoate)] | 6.75 | – | – |
| CCCCC/C=C\C/C=C\CCCCCCCC(=O)OCC(COC(=O)CCCCCCC/C=C\C/C=C\CCCCC)OC(=O)CCC(CCCCCC(C)C)OC(=O)NCCN(C)CC (centres unmarked) [Compound 81, 2-((4-(((2-(ethyl(methyl)amino)ethyl)carbamoyl)oxy)-10-methylundecanoyl)oxy)propane-1,3-diyl (9Z,9′Z,12Z,12′Z)-bis(octadeca-9,12-dienoate)] | 6.42 | – | – |
| CCCCC/C=C\C/C=C\CCCCCCCC(=O)OCC(COC(=O)CCCCCCC/C=C\C/C=C\CCCCC)OC(=O)CCCOC(=O)NCCN(C)CC [Compound 43, 2-((4-(((2-(ethyl(methyl)amino)ethyl)carbamoyl)oxy)butanoyl)oxy)propane-1,3-diyl (9Z,9′Z,12Z,12′Z)-bis(octadeca-9,12-dienoate)] | 7.33 | – | – |
| CCCCC/C=C\C/C=C\CCCCCCCC(=O)OCC(COC(=O)CCCCCCC/C=C\C/C=C\CCCCC)OC(=O)CCC(CCCCC(C)C)OC(=O)NCCN(C)CC (centres unmarked) [Compound 80, 2-((4-(((2-(ethyl(methyl)amino)ethyl)carbamoyl)oxy)-9-methyldecanoyl)oxy)propane-1,3-diyl (9Z,9′Z,12Z,12′Z)-bis(octadeca-9,12-dienoate)] | 6.41 | – | – |
